Results taken from US9409922B2, “Imidazopyridine macrocycles as inhibitors of human immunodeficiency virus replication” (priority 2014, dated 2016).
Like-named read-outs stand apart in the source and are kept apart here.

Tested on: NL-RLuc virus
Test: Inhibition of HIV replication: NL-RLuc reporter virus in MT-2 cells, luciferase readout
Assay type: cell-based
Conditions: MT-2 cells infected with NL-RLuc virus, 5 days of incubation, 10% FBS, at least 2 experiments
Text: Inhibition of HIV Replication:
A recombinant NL-RLuc proviral clone was constructed in which a section of the nef gene from NL4-3 was replaced with the Renilla Luciferase gene. This virus is fully infectious and can undergo multiple cycles of replication in cell culture. In addition, the luciferous reporter provides a simple and easy method for quantitating the extent of virus growth and consequently, the antiviral activity of test compounds. The plasmid pNLRLuc contains the proviral NL-Rluc DNA cloned into pUC 18 at the PvuII site. The NL-RLuc virus was prepared by transfection of 293T cells with the plasmid pNLRLuc. Transfections were performed using the LipofectAMINE PLUS kit from Invitrogen (Carlsbad, Calif.) according to the manufacturer and the virus generated was titered in MT-2 cells. For susceptibility analyses, the titrated virus was used to infect MT-2 cells in the presence of compound, and after 5 days of incubation, cells were processed and quantitated for virus growth by the amount of expressed luciferase. Assay media was RPMI 1640 supplemented with 10% heat inactivated fetal bovine serum (FBS), 100 units/ml penicillin G/100 units/ml streptomycin, 10 mM HEPES buffer pH 7.55 and 2 mM L-glutamine. The results from at least 2 experiments were used to calculate the EC50 values. Luciferase was quantitated using the Dual Luciferase kit from Promega (Madison, Wis.). Susceptibility of viruses to compounds was determined by incubation in the presence of serial dilutions of the compound. The 50% effective concentration (EC50) was calculated by using the exponential form of the median effect equation where (Fa)=1/[1+(ED50/drug conc.)^m](Johnson V A, Byington R T. Infectivity Assay. In Techniques in HIV Research. ed. Aldovini A, Walker B D. 71-76. New York: Stockton Press. 1990).

[1] = Human immunodeficiency virus 1, MT2, 120 h

SMILES	EC50 [1] [nM]	EC50 (read-out: EC50) [nM]
Cc1cc2nc3cn2c(c1[C@H](OC(C)(C)C)C(=O)O)N1CCC(C)(CCCCCOc2ccccc2CNC3=O)CC1 [Example 1, (2S)-2-(tert-Butoxy)-2-{4,25-dimethyl-10-oxo-19-oxa-1,7,11,30-tetraazapentacyclo[23.2.2.1^6,^9.0^2,^7.0^13,^18]triaconta-2,4,6(30),8,13(18),14,16-heptaen-3-yl}acetic acid]	71	–
Cc1cc2nc3cn2c(c1[C@H](OC(C)(C)C)C(=O)O)N1CCC(C)(CCCCCCOc2ccc(F)cc2CNC3=O)CC1 [Example 2, (2S)-2-(tert-Butoxy)-2-{15-fluoro-4,26-dimethyl-10-oxo-19-oxa-1,7,11,31-tetraazapentacyclo[24.2.2.1^6,^9.0^2,^7.0^13,^18]hentriaconta-2,4,6(31),8,13(18),14,16-heptaen-3-yl}acetic acid]	16	–
Cc1cc2nc3cn2c(c1[C@H](OC(C)(C)C)C(=O)O)N1CCC(C)(CC1)OCCCCCOc1ccc(F)cc1CNC3=O [Example 3, (2S)-2-(tert-Butoxy)-2-{15-fluoro-4,26-dimethyl-10-oxo-19,25-dioxa-1,7,11,31-tetraazapentacyclo[24.2.2.1^6,^9.0^2,^7.0^13,^18]hentriaconta-2,4,6(31),8,13(18),14,16-heptaen-3-yl}acetic acid]	27	–
Cc1cc2nc3cn2c(c1[C@H](OC(C)(C)C)C(=O)O)N1CCC(C)(CC1)OCCCCCOc1ccccc1Cc1nnc-3o1 [Example 4, (2S)-2-(tert-Butoxy)-2-{4,28-dimethyl-21,27,33-trioxa-1,7,11,12,34-pentaazahexacyclo[26.2.2.1^6,^9.1^10,^13.0^2,^7.0^15,^20]tetratriaconta-2,4,6(34),8,10,12,15(20),16,18-nonaen-3-yl}acetic acid]	10	–
Cc1cc2nc3cn2c(c1[C@H](OC(C)(C)C)C(=O)O)N1CCC(C)(CC1)OCCCCCOc1ccc(F)cc1Cc1nc-3[nH]c1Cl [Example 5]	7	–
Cc1cc2nc3cn2c(c1[C@H](OC(C)(C)C)C(=O)O)N1CCC(C)(CC1)OC/C=C/C[C@H](C)Oc1cc(F)ccc1-c1cccc-3c1 [Example 6, (2S)-2-(tert-Butoxy)-2-[(22S)-18-fluoro-4,22,28-trimethyl-21,27-dioxa-1,7,34-triazahexacyclo[26.2.2.1^6,^9.1^10,^14.0^2,^7.0^15,^20]tetratriaconta-2,4,6(34),8,10(33),11,13,15(20),16,18,24-undecaen-3-yl]acetic acid]	5	–
Cc1cc2nc3cn2c(c1[C@H](OC(C)(C)C)C(=O)O)N1CCC(C)(CC1)OCCCC[C@H](C)Oc1cc(F)ccc1-c1cccc-3c1 [Example 7, (2S)-2-(tert-Butoxy)-2-[(22S)-4,17,22,28-tetramethyl-21,27-dioxa-1,7,34-triazahexacyclo[26.2.2.1^6,^9.1^10,^14.0^2,^7.0^15,^20]tetratriaconta-2,4,6(34),8,10(33),11,13,15(20),16,18-decaen-3-yl]acetic acid]	5	–
Cc1ccc2c(c1)-c1cccc(c1)-c1cn3c(c([C@H](OC(C)(C)C)C(=O)O)c(C)cc3n1)N1CCC(C)(CC1)OCCCC[C@H](C)O2 [Example 8, (2S)-2-(tert-Butoxy)-2-[(22S)-4,17,22,28-tetramethyl-21,27-dioxa-1,7,34-triazahexacyclo[26.2.2.1^6,^9.1^10,^14.0^2,^7.0^15,^20]tetratriaconta-2,4,6(34),8,10(33),11,13,15(20),16,18-decaen-3-yl]acetic acid]	15	–
Cc1ccc2c(c1)-c1cccc(c1)-c1cn3c(c([C@H](OC(C)(C)C)C(=O)O)c(C)cc3n1)N1CCC(C)(CC1)OC/C=C/C[C@H](C)O2 [Example 9, (2S)-2-(tert-Butoxy)-2-[(22S)-4,17,22,28-tetramethyl-21,27-dioxa-1,7,34-triazahexacyclo[26.2.2.1^6,^9.1^10,^14.0^2,^7.0^15,^20]tetratriaconta-2,4,6(34),8,10(33),11,13,15(20),16,18,24-undecaen-3-yl]acetic acid]	9	–
Cc1cc2nc3cn2c(c1[C@H](OC(C)(C)C)C(=O)O)N1CCC(C)(CC1)OCCCC[C@H](C)Oc1ccc(F)cc1-c1cccc-3c1 [Example 10, (2S)-2-(tert-Butoxy)-2-[(22S)-17-fluoro-4,22,28-trimethyl-21,27-dioxa-1,7,34-triazahexacyclo[26.2.2.1^6,^9.1^10,^14.0^2,^7.0^15,^20]tetratriaconta-2,4,6(34),8,10(33),11,13,15(20),16,18-decaen-3-yl]acetic acid]	4	–
Cc1cc2nc3cn2c(c1[C@H](OC(C)(C)C)C(=O)O)N1CCC(C)(CC1)OC/C=C/C[C@H](C)Oc1cc(F)c(F)cc1-c1cccc-3c1 [Example 11, (2S)-2-(tert-Butoxy)-2-[(22S)-17,18-difluoro-4,22,28-trimethyl-21,27-dioxa-1,7,34-triazahexacyclo[26.2.2.1^6,^9.1^10,^14.0^2,^7.0^15,^20]tetratriaconta-2,4,6(34),8,10(33),11,13,15(20),16,18,24-undecaen-3-yl]acetic acid]	12	–
Cc1cc2nc3cn2c(c1[C@H](OC(C)(C)C)C(=O)O)N1CCC(C)(CC1)OC/C=C\C[C@H](C)Oc1cc(F)c(F)cc1-c1cccc-3c1 [Example 12, (2S)-2-(tert-Butoxy)-2-[(22S)-17,18-difluoro-4,22,28-trimethyl-21,27-dioxa-1,7,34-triazahexacyclo[26.2.2.1^6,^9.1^10,^14.0^2,^7.0^15,^20]tetratriaconta-2,4,6(34),8,10(33),11,13,15(20),16,18,24-undecaen-3-yl]acetic acid]	3	–
Cc1cc2nc3cn2c(c1[C@H](OC(C)(C)C)C(=O)O)N1CCC(C)(CC1)OCCCC[C@H](C)Oc1cc(F)c(F)cc1-c1cccc-3c1 [Example 13, (2S)-2-(tert-Butoxy)-2-[(22S)-17,18-difluoro-4,22,28-trimethyl-21,27-dioxa-1,7,34-triazahexacyclo[26.2.2.1^6,^9.1^10,^14.0^2,^7.0^15,^20]tetratriaconta-2,4,6(34),8,10(33),11,13,15(20),16,18-decaen-3-yl]acetic acid]	8	–
Cc1cc2nc3cn2c(c1[C@H](OC(C)(C)C)C(=O)O)N1CCC(C)(CC1)OCC=CC[C@H](C)Oc1cc(F)cc(F)c1-c1cccc-3c1 [Example 14, (2S)-2-(tert-Butoxy)-2-[(22S)-16,18-difluoro-4,22,28-trimethyl-21,27-dioxa-1,7,34-triazahexacyclo[26.2.2.1^6,^9.1^10,^14.0^2,^7.0^15,^20]tetratriaconta-2,4,6(34),8,10(33),11,13,15(20),16,18,24-undecaen-3-yl]acetic acid]	–	2
Cc1cc2nc3cn2c(c1[C@H](OC(C)(C)C)C(=O)O)N1CCC(C)(CC1)OCCCCC[C@H](C)Oc1cc(F)cc(F)c1-c1cccc-3c1 [Example 16, (2S)-2-(tert-Butoxy)-2-[(22S)-16,18-difluoro-4,22,28-trimethyl-21,27-dioxa-1,7,34-triazahexacyclo[26.2.2.1^6,^9.1^10,^14.0^2,^7.0^15,^20]tetratriaconta-2,4,6(34),8,10(33),11,13,15(20),16,18-decaen-3-yl]acetic acid]	4	–
Cc1cc2c(cc1C)-c1cccc(c1)-c1cn3c(c([C@H](OC(C)(C)C)C(=O)O)c(C)cc3n1)N1CCC(C)(CC1)OCC=CC[C@H](C)O2 [Example 17, (2S)-2-(tert-Butoxy)-2-[(22S)-4,17,18,22,28-pentamethyl-21,27-dioxa-1,7,34-triazahexacyclo[26.2.2.1^6,^9.1^10,^14.0^2,^7.0^15,^20]tetratriaconta-2,4,6(34),8,10(33),11,13,15(20),16,18,24-undecaen-3-yl]acetic acid]	6	–
Cc1cc2c(cc1C)-c1cccc(c1)-c1cn3c(c([C@H](OC(C)(C)C)C(=O)O)c(C)cc3n1)N1CCC(C)(CC1)OC/C=C\C[C@H](C)O2 [Example 18, (2S)-2-(tert-Butoxy)-2-[(22S)-4,17,18,22,28-pentamethyl-21,27-dioxa-1,7,34-triazahexacyclo[26.2.2.1^6,^9.1^10,^14.0^2,^7.0^15,^20]tetratriaconta-2,4,6(34),8,10(33),11,13,15(20),16,18,24-undecaen-3-yl]acetic acid]	8	–
Cc1cc2c(cc1C)-c1cccc(c1)-c1cn3c(c([C@H](OC(C)(C)C)C(=O)O)c(C)cc3n1)N1CCC(C)(CC1)OCCCC[C@H](C)O2 [Example 19, (2S)-2-(tert-Butoxy)-2-[(22S)-4,17,18,22,28-pentamethyl-21,27-dioxa-1,7,34-triazahexacyclo[26.2.2.1^6,^9.1^10,^14.0^2,^7.0^15,^20]tetratriaconta-2,4,6(34),8,10(33),11,13,15(20),16,18-decaen-3-yl]acetic acid]	15	–
Cc1cc2c(cc1F)-c1cccc(c1)-c1cn3c(c([C@H](OC(C)(C)C)C(=O)O)c(C)cc3n1)N1CCC(C)(CC1)OCCCC[C@H](C)O2 [Example 20, (2S)-2-(tert-Butoxy)-2-[(22S)-17-fluoro-4,18,22,28-tetramethyl-21,27-dioxa-1,7,34-triazahexacyclo[26.2.2.1^6,^9.1^10,^14.0^2,^7.0^15,^20]tetratriaconta-2,4,6(34),8,10(33),11,13,15(20),16,18-decaen-3-yl]acetic acid]	11	–
